These are literature values, as cited in patent EP0916677A1, “METHOD FOR SEARCHING FOR PEPTIDES AND PROCESS FOR PRODUCING COMPOUNDS” (YAMANOUCHI PHARMACEUTICAL CO., LTD., priority 1996, dated 1998).

The data set has as its target T1, trypsin (Bos taurus, UniProt P00760).
T1 sequence (P00760 24-246): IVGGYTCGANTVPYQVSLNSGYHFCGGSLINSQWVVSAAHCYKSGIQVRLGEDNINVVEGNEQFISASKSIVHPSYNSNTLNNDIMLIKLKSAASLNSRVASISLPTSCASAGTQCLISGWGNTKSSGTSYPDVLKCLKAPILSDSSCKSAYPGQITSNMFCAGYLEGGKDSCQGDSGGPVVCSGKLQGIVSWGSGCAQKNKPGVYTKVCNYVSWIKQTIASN
To be noted: known from Eichler et al., Biochemistry, 1993, 32, 11035.

Consider Ac-TTKIFT-NH2 [TTKIFT, Ac-TTKIFT-NH2], for which the trypsin inhibitory activity entry is on record as “high”.
